Experimental data as given in patent US20240423964A1, “METHODS AND COMPOSITIONS FOR IMPROVING NEUROMUSCULAR JUNCTION MORPHOLOGY AND FUNCTION” (The Board of Trustees of the Leland Stanford Junior …, priority 2021, published 2024).
“Also recorded” adds a separate entry of the source.

What was measured:
[1] = system: aged mice; assay: Motor neuron apoptosis: cleaved caspase-3 in ChAT+ neurons of the lumbar spinal cord of aged mice; type: in vivo, mouse; conditions: ChAT+ neurons in ventral horn of lumbar spinal cord
Method: (§1) Mice were treated for 1 month once a day intraperitoneally with 5 mg/kg of SW033291 (SW) or vehicle (10% ethanol, 5% Cremophor EL, and 85% D5W (5% (wt/v) dextrose in water, Tables 3 and 4)) as previously described (2). Vehicle and SW treatments were performed in seven independent experiments for aging studies that included young and aged vehicle- and SW-treated groups. Mice were randomized based on their body weight into vehicle-treated control and SW-treated experimental groups prior to the start of injections. A full-body necropsy was performed on all mice at the experimental endpoint and mice that developed tumors were excluded from the study.
Spinal cords were harvested as previously described using hydraulic extrusion of the entire intact spinal cord. Briefly, mice were euthanized with carbon dioxide and decapitated using scissors caudally to the brain stem. The spinal columns were severed just caudal to the sacral spinal cord. A blunt 25-gauge syringe containing ice-cold PBS was inserted into the caudal end of the spinal cord to hydraulicly extrude the entire cord in a petri0dish with ice-cold PBS. The lumbar region was identified under a stereomicroscope, dissected with a sharp blade, and fixed overnight at 4 C in 4% PFA in phosphate buffer. Fixed lumbar spinal cords were embedded in O.C.T. and were frozen in liquid-nitrogen-cooled isopentane. […]

[2] = system: mice undergoing unilateral sciatic nerve crush; assay: Sciatic nerve crush: body weight and gastrocnemius/soleus muscle weight; type: in vivo, mouse
Method: (§2) Nerve injury was induced as described below. Mice were treated with SW or vehicle as control intraperitoneally once daily for 14 days post-injury as described above.
(§3) The sciatic nerve crush surgery was adopted from the protocol described previously by Bauder and Ferguson (41). The crush surgery was performed as described above with the following modifications. After locating the sciatic nerve, the nerve was mobilized gently with sharp sticks for easy access with hemostatic forceps (Fine Science Tools, 13020-12). Next, the nerve was gently placed on the bottom jaw of the forceps and was crushed for 15 seconds at 3 clicks of the forceps (first location of the locking handle). The incision was closed using 7 mm autoclaved reflex clips (World Precision Instruments, 500344; Applier: 500345). Mice were monitored for recovery from anesthesia and then returned to their home cages.

[3] = system: aged mice; assay: Aged mice treated systemically with SW033291 for one month: muscle PGE2 levels, muscle mass and force; type: in vivo, mouse; conditions: systemic treatment for one month
Text: The prostaglandin E2 catabolizing enzyme, 15-hydroxyprostaglandin dehydrogenase (15-PGDH), is a pivotal regulator of muscle aging and that its inhibition leads to a marked increase in muscle mass and strength in aged mice^1. 15-PGDH is a nicotinamide adenine dinucleotide (NAD+) dependent enzyme that increases with aging in muscle and catabolizes PGE2. FIGS. 1A-1B show increased 15-PGDH activity along with PGE2 levels, and these are reduced in aged mouse muscle. […] Strikingly, overexpression of 15-PGDH in young mouse muscles leads to loss of muscle mass and strength after just one month^1. […]
Plantar flexion peak isometric torque (N·mm) was measured in mice as described previously (2, 42, 43). […] Data were analyzed using Aurora Scientific Dynamic Muscle Analysis Software Suite. Force was measured longitudinally in mice undergoing unilateral sciatic nerve crush injury on days 3, 7, and 14 post-injury. Peak tetanic force generated by contralateral uninjured legs was measured in all experimental mice at all time points.
Prostaglandins, PGE2, PGD2, and PGF2a, and PGE2 metabolites, 15-keto PGE2 and 13,14-dihydro-15-keto PGE2 (PGEM), were measured as described previously (2). Briefly, tissues were snap frozen in liquid nitrogen upon dissection and were kept for no more than 2 weeks in −80° C. freezer before processing for prostaglandin quantification using LC-MS/MS. […]

[4] = molecular target: 15-PGDH (Mus musculus, UniProt Q8VCC1); conditions: in vivo; cited from earlier work
[5] = system: mice undergoing unilateral sciatic nerve crush; assay: Sciatic nerve crush: plantar flexion tetanic force by nerve stimulation; type: in vivo, mouse
Method: as §2, §3
Plantar flexion peak isometric torque (N·mm) was measured in mice as described previously (2, 42, 43). Briefly, mice were anesthetized with 3% isoflurane mixed with oxygen and legs were shaved from ankle to hip to allow for reproducible access to the tibial nerve. The foot was taped to a footplate attached to a servomotor (Aurora Scientific, 300C-LR) and the knee joint was secured to a fixed steel post. Contractions were elicited by percutaneous electrical stimulation of the tibial nerve by inserting two Pt—Ir electrode needles (Aurora Scientific) posterior to the knee joint. The peak isometric torque was achieved by injecting 0.4 mA current to the tibial nerve at a frequency of 150 Hz and 0.1 ms square wave pulse. Three tetanic measurements were performed on each muscle, with 1 minute recovery between each measurement, and chose the highest value. Force measurement acquisition was blinded and the researcher performing the force measurements was unaware of treatment conditions. Data were analyzed using Aurora Scientific Dynamic Muscle Analysis Software Suite. Force was measured longitudinally in mice undergoing unilateral sciatic nerve crush injury on days 3, 7, and 14 post-injury. Peak tetanic force generated by contralateral uninjured legs was measured in all experimental mice at all time points.

[6] = system: mice undergoing unilateral sciatic nerve crush; assay: Sciatic nerve crush: NMJ denervation in ipsilateral EDL muscles (immunofluorescence); type: in vivo, mouse; conditions: 14 dpi, daily intraperitoneal treatment, compared to vehicle-treated controls
Method: as §2
as §3, with “cages. […]” for “cages.”
Confocal images were acquired on a Marianas spinning disk confocal (SDC) microscopy with Intelligent Imaging Innovations software using a 20×/NA 0.75 or an oil immersion 40×/NA 0.9 objective to capture multiple focal planes at a step size of 1 μm. Images acquired using the 20× objective were analyzed to score denervation, axonal swelling, and fragmentation of AChRs. Images acquired with the oil immersion 40× objective were analyzed to quantity NMJ-associated endolysosomal vesicles stained with α-bungarotoxin-AF647. […]

[7] = system: aged mice; assay: NMJ morphology in EDL muscles of aged mice (whole-mount staining, confocal microscopy); type: in vivo, mouse
Method: as §1
Extensor digitorum longus (EDL) and soleus muscles were dissected and fixed in 4% PFA in PBS for 30 minutes at room temperature. Muscles were washed in PBS extensively and stored in PBS with 0.01% sodium azide (Sigma. S2002) at 4 C until processed. For whole-mount staining, EDLs were separated using the distal tendon into 4 pieces to make thinner sheets of muscles for staining. The proximal and distal tendons of either soleus or EDL pieces were removed to allow for teasing thin bundles of muscle fibers using fine forceps under a stereomicroscope. Care was given in handling tissues to avoid touching the end plate band with forceps tips. Next, myofiber bundles were incubated in PBS-T (0.3% Triton X-100 in PBS) for 1 hour and were blocked in blocking solution (5% goat serum and 0.3% Triton X-100 in PBS) supplemented with 1:50 dilution of goat anti-mouse IgG (Jackson ImmunoResearch, 115-007-003) and IgM (Jackson ImmunoResearch, 115-007-020) for 1 hour at room temperature. Tissues were then incubated with a primary antibody mix against neurofilament and synaptic vesicle (2H3 and SV, DSHB) at 5 μg/ml for a minimum of 24 hours at 4 C with gentle shaking. Tissues were then rinsed with PBS-T and incubated with a secondary antibody mix (goat anti-mouse IgG1-Cy™3, Bungarotoxin-AF™647, and Hoechst 33342) diluted in blocking solution overnight at 4° C. with gentle shaking. Tissues were washed extensively with PBS and mounted in Fluoromount-G™ mounting medium (Southern Biotech, 0100-01) and left overnight to equilibrate prior to confocal microscopy.
Confocal images were acquired on a Marianas spinning disk confocal (SDC) microscopy with Intelligent Imaging Innovations software using a 20×/NA 0.75 or an oil immersion 40×/NA 0.9 objective to capture multiple focal planes at a step size of 1 μm. Images acquired using the 20× objective were analyzed to score denervation, axonal swelling, and fragmentation of AChRs. Images acquired with the oil immersion 40× objective were analyzed to quantity NMJ-associated endolysosomal vesicles stained with α-bungarotoxin-AF647. Maximum intensity projection images were created from confocal slices using NIH ImageJ software. Data acquisition and NMJ scoring were performed by two researchers blinded to treatment conditions.

[8] = system: aged mice; assay: Electron microscopy of motor neuron-associated mitochondria in EDL axons of aged mice; type: in vivo, mouse; conditions: one month of treatment, listed as SW
Method: as §1
Extensor digitorum longus (EDL) muscles were dissected and pinned by proximal and distal tendons to the bottom of a petri-dish coated with silicone rubber. Tissues fixed in 2% Glutaraldehyde (Electron Microscopy Sciences, 16000) and 4% paraformaldehyde (Electron Microscopy Sciences, 15700) in 0.1M sodium cacodylate (Electron Microscopy Sciences, 12300) pH 7.4 for 24 hours. Tissues were then transferred from petri-dishes to microcentrifuge tubes with 1% Osmium tetroxide (Electron Microscopy Sciences, 19100) and were kept at room temperature for 1 hour with gentle rotation. […] Images were quantified by an individual blinded to experimental conditions in ImageJ.

[9] = aged mice, one month of intraperitoneal administration
[10] = geriatric mice (>26 months), one month once daily i.p., EDL

Sequence of 15-PGDH (Q8VCC1 whole entry): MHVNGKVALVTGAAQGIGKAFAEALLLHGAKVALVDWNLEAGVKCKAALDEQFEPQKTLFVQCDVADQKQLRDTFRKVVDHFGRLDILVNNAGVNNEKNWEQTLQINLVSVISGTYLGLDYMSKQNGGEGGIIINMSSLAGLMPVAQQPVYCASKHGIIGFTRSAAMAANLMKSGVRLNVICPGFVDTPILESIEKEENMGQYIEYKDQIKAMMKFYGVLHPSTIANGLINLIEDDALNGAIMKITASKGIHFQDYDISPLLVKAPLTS

SMILES: CCCC[S+]([O-])c1sc2nc(-c3cccs3)cc(-c3ccccc3)c2c1N (centres unmarked) [SW033291, 2-(butylsulfinyl)-4-phenyl-6-(thiophen-2-yl)thieno[2,3-b]pyridin-3-amine]
- activated caspase-3 in aged lumbar motor neurons (apoptosis) [1]: lower levels
- muscle mass in injured legs ([2]; 14 dpi, gastrocnemius and soleus): significant increase
- muscle weight of the contralateral control legs, difference between vehicle and SW treatment ([2]; contralateral control legs, 14 days post nerve crush): No differences
- animals body weight, difference between vehicle and SW treatment ([2]; nerve crush model): No differences
- increase in muscle mass and force [3]: 15-20%
- muscle PGE2 levels [3]: to the physiological levels measured in young mice
- catabolic regulators of muscle atrophy such as atrogenes, ubiquitin ligases MuRF1 (Trim63) and Fbxo32, and TGF-beta signaling [4]: reduction
- tetanic plantar flexor force in the injured leg, difference between vehicle and SW ([5]; 3 dpi until 7 dpi): no differences between the experimental groups
- plantar flexion force of the contralateral (uninjured) legs, difference between vehicle and SW ([5]; contralateral control legs, listed as SW): no significant differences
- increase in specific force (force normalized to gastrocnemius and soleus weight) ([5]; mean±S.D., compared to vehicle-treated control mice, 14 days post nerve crush): 52±10%
- increase in plantar flexion force generation in injured legs ([5]; mean±S.D., daily intraperitoneal treatment after nerve crush): 69±8%
- denervation rates in EDLs ipsilateral to the nerve crush [6]: significantly reduced
- morphology of the AChRs [7, 9]: improves, enhances, and/or rejuvenates the intact morphology of the AChRs
- number of AChR rich endo/lysosomal vesicles [7, 9]: striking reduction
- number of AChR rich endo/lysosomal vesicles ([7]; aged mice, one month of intraperitoneal administration, listed as SW): reduces
- aged NMJ morphology [7, 10]: improved, enhanced, and/or rejuvenated to branched and pretzel-like structures found in young EDLs
- incidence of AChR fragmentation [7, 10]: significantly reduced
- incidence of motor neuron axonal swelling [7, 10]: significantly reduced
- rate of denervation in aged EDLs ([7]; geriatric mice (>26 months), one month once daily i.p., mean±S.E.M.): 12.4±2.9
- mitochondrial morphology in motor neurons (distal axons / heavily myelinated axons of EDL) [8]: improvement, enhancement, and/or rejuvenation of mitochondrial morphology; also recorded: improved, enhanced, and/or rejuvenated to compact circular mitochondria morphology resembling that seen in young
